Measured values published in article PMC8699473, “An Easily Expandable Multi-Drug LC-MS Assay for the Simultaneous Quantification of 57 Oral Antitumor Drugs in Human Plasma” (Cancers, 2021).

Assays:
[1] = Freeze-thaw stability in spiked pooled human plasma; assay type: physicochemical
[2] = Long-term stability in spiked pooled human plasma
[3] = parameters: method as in supplement references [1-55] as printed per drug; details: minimum steady-state blood plasma concentration after multiple dose administration; ref supplement references [1-55] per drug; cited from earlier work
[4] = Autosampler stability of ready for injection samples; assay type: physicochemical, human
[5] = Short-term stability in spiked pooled human plasma (bench-top, 4 °C, 56 °C)

N#CC[C@H](C1CCCC1)n1cc(-c2ncnc3[nH]ccc23)cn1 [Ruxolitinib]
Freeze-Thaw Accuracy [%] ([1]; validation standard 2xLLOV): 94.7%
Freeze-Thaw Accuracy [%] ([1]; validation standard LLOV): 92.5%
Freeze-Thaw Accuracy [%] ([1]; validation standard MOV): 96.2%
Freeze-Thaw Accuracy [%] ([1]; validation standard ULOV): 97.2%
Long-term stability, 1 month, -20°C Accuracy [%] ([2]; validation standard 2xLLOV): 101.5%
Long-term stability, 1 month, -80°C Accuracy [%] ([2]; validation standard 2xLLOV): 93.0%
Long-term stability, 2 month, -20°C Accuracy [%] ([2]; validation standard 2xLLOV): 97.7%
Long-term stability, 2 month, -80°C Accuracy [%] ([2]; validation standard 2xLLOV): 100.0%
Long-term stability, 3 month, -20°C Accuracy [%] ([2]; validation standard 2xLLOV): 97.5%
Long-term stability, 3 month, -80°C Accuracy [%] ([2]; validation standard 2xLLOV): 99.4%
Long-term stability, 6 weeks, 4°C, without daylight Accuracy [%] ([2]; validation standard 2xLLOV): 93.8%
Long-term stability, 1 month, -20°C Accuracy [%] ([2]; validation standard LLOV): 95.6%
Long-term stability, 1 month, -80°C Accuracy [%] ([2]; validation standard LLOV): 94.6%
Long-term stability, 2 month, -20°C Accuracy [%] ([2]; validation standard LLOV): 98.6%
Long-term stability, 2 month, -80°C Accuracy [%] ([2]; validation standard LLOV): 99.8%
Long-term stability, 3 month, -20°C Accuracy [%] ([2]; validation standard LLOV): 101.8%
Long-term stability, 3 month, -80°C Accuracy [%] ([2]; validation standard LLOV): 96.5%
Long-term stability, 6 weeks, 4°C, without daylight Accuracy [%] ([2]; validation standard LLOV): 97.9%
Long-term stability, 1 month, -20°C Accuracy [%] ([2]; validation standard MOV): 95.8%
Long-term stability, 1 month, -80°C Accuracy [%] ([2]; validation standard MOV): 94.2%
Long-term stability, 2 month, -20°C Accuracy [%] ([2]; validation standard MOV): 97.7%
Long-term stability, 2 month, -80°C Accuracy [%] ([2]; validation standard MOV): 96.8%
Long-term stability, 3 month, -20°C Accuracy [%] ([2]; validation standard MOV): 97.0%
Long-term stability, 3 month, -80°C Accuracy [%] ([2]; validation standard MOV): 94.6%
Long-term stability, 6 weeks, 4°C, without daylight Accuracy [%] ([2]; validation standard MOV): 97.6%
Long-term stability, 1 month, -20°C Accuracy [%] ([2]; validation standard ULOV): 95.3%
Long-term stability, 1 month, -80°C Accuracy [%] ([2]; validation standard ULOV): 91.6%
Long-term stability, 2 month, -20°C Accuracy [%] ([2]; validation standard ULOV): 95.3%
Long-term stability, 2 month, -80°C Accuracy [%] ([2]; validation standard ULOV): 95.8%
Long-term stability, 3 month, -20°C Accuracy [%] ([2]; validation standard ULOV): 95.4%
Long-term stability, 3 month, -80°C Accuracy [%] ([2]; validation standard ULOV): 94.5%
Long-term stability, 6 weeks, 4°C, without daylight Accuracy [%] ([2]; validation standard ULOV): 96.6%
cmin [3]: 11.4 ng/mL
Autosampler (24h, 4°C) Accuracy [%] ([4]; validation standard 2xLLOV): 100.5%
Autosampler (72h, 4°C) Accuracy [%] ([4]; validation standard 2xLLOV): 97.7%
Autosampler (24h, 4°C) Accuracy [%] ([4]; validation standard LLOV): 93.9%
Autosampler (72h, 4°C) Accuracy [%] ([4]; validation standard LLOV): 94.4%
Autosampler (24h, 4°C) Accuracy [%] ([4]; validation standard MOV): 102.4%
Autosampler (72h, 4°C) Accuracy [%] ([4]; validation standard MOV): 99.7%
Autosampler (24h, 4°C) Accuracy [%] ([4]; validation standard ULOV): 100.1%
Autosampler (72h, 4°C) Accuracy [%] ([4]; validation standard ULOV): 99.7%
Short-time stability (1h, 56°C) Accuracy [%] ([5]; validation standard 2xLLOV): 63.9%
Short-time stability (24h, 4°C, without daylight) Accuracy [%] ([5]; validation standard 2xLLOV): 97.6%
Short-time stability (24h, RT, with daylight) Accuracy [%] ([5]; validation standard 2xLLOV): 101.6%
Short-time stability (24h, RT, without daylight) Accuracy [%] ([5]; validation standard 2xLLOV): 102.0%
Short-time stability (1h, 56°C) Accuracy [%] ([5]; validation standard LLOV): 63.3%
Short-time stability (24h, 4°C, without daylight) Accuracy [%] ([5]; validation standard LLOV): 102.2%
Short-time stability (24h, RT, with daylight) Accuracy [%] ([5]; validation standard LLOV): 100.4%
Short-time stability (24h, RT, without daylight) Accuracy [%] ([5]; validation standard LLOV): 105.0%
Short-time stability (1h, 56°C) Accuracy [%] ([5]; validation standard MOV): 60.9%
Short-time stability (24h, 4°C, without daylight) Accuracy [%] ([5]; validation standard MOV): 100.3%
Short-time stability (24h, RT, with daylight) Accuracy [%] ([5]; validation standard MOV): 100.6%
Short-time stability (24h, RT, without daylight) Accuracy [%] ([5]; validation standard MOV): 102.2%
Short-time stability (1h, 56°C) Accuracy [%] ([5]; validation standard ULOV): 53.0%
Short-time stability (24h, 4°C, without daylight) Accuracy [%] ([5]; validation standard ULOV): 95.9%
Short-time stability (24h, RT, with daylight) Accuracy [%] ([5]; validation standard ULOV): 102.3%
Short-time stability (24h, RT, without daylight) Accuracy [%] ([5]; validation standard ULOV): 101.3%

COC(=O)c1ccc2c(c1)NC(=O)/C2=C(\Nc1ccc(N(C)C(=O)CN2CCN(C)CC2)cc1)c1ccccc1 [Nintedanib]
Freeze-Thaw Accuracy [%] ([1]; validation standard 2xLLOV): 103.0%
Freeze-Thaw Accuracy [%] ([1]; validation standard LLOV): 93.2%
Freeze-Thaw Accuracy [%] ([1]; validation standard MOV): 96.9%
Freeze-Thaw Accuracy [%] ([1]; validation standard ULOV): 95.8%
Long-term stability, 1 month, -20°C Accuracy [%] ([2]; validation standard 2xLLOV): 97.2%
Long-term stability, 1 month, -80°C Accuracy [%] ([2]; validation standard 2xLLOV): 98.9%
Long-term stability, 2 month, -20°C Accuracy [%] ([2]; validation standard 2xLLOV): 103.8%
Long-term stability, 2 month, -80°C Accuracy [%] ([2]; validation standard 2xLLOV): 99.7%
Long-term stability, 3 month, -20°C Accuracy [%] ([2]; validation standard 2xLLOV): 90.3%
Long-term stability, 3 month, -80°C Accuracy [%] ([2]; validation standard 2xLLOV): 91.1%
Long-term stability, 6 weeks, 4°C, without daylight Accuracy [%] ([2]; validation standard 2xLLOV): 94.4%
Long-term stability, 1 month, -20°C Accuracy [%] ([2]; validation standard LLOV): 102.0%
Long-term stability, 1 month, -80°C Accuracy [%] ([2]; validation standard LLOV): 102.1%
Long-term stability, 2 month, -20°C Accuracy [%] ([2]; validation standard LLOV): 96.9%
Long-term stability, 2 month, -80°C Accuracy [%] ([2]; validation standard LLOV): 94.3%
Long-term stability, 3 month, -20°C Accuracy [%] ([2]; validation standard LLOV): 88.2%
Long-term stability, 3 month, -80°C Accuracy [%] ([2]; validation standard LLOV): 88.3%
Long-term stability, 6 weeks, 4°C, without daylight Accuracy [%] ([2]; validation standard LLOV): 86.6%
Long-term stability, 1 month, -20°C Accuracy [%] ([2]; validation standard MOV): 95.5%
Long-term stability, 1 month, -80°C Accuracy [%] ([2]; validation standard MOV): 91.4%
Long-term stability, 2 month, -20°C Accuracy [%] ([2]; validation standard MOV): 98.9%
Long-term stability, 2 month, -80°C Accuracy [%] ([2]; validation standard MOV): 99.7%
Long-term stability, 3 month, -20°C Accuracy [%] ([2]; validation standard MOV): 97.2%
Long-term stability, 3 month, -80°C Accuracy [%] ([2]; validation standard MOV): 94.7%
Long-term stability, 6 weeks, 4°C, without daylight Accuracy [%] ([2]; validation standard MOV): 94.4%
Long-term stability, 1 month, -20°C Accuracy [%] ([2]; validation standard ULOV): 94.5%
Long-term stability, 1 month, -80°C Accuracy [%] ([2]; validation standard ULOV): 87.4%
Long-term stability, 2 month, -20°C Accuracy [%] ([2]; validation standard ULOV): 97.0%
Long-term stability, 2 month, -80°C Accuracy [%] ([2]; validation standard ULOV): 94.8%
Long-term stability, 3 month, -20°C Accuracy [%] ([2]; validation standard ULOV): 92.9%
Long-term stability, 3 month, -80°C Accuracy [%] ([2]; validation standard ULOV): 91.8%
Long-term stability, 6 weeks, 4°C, without daylight Accuracy [%] ([2]; validation standard ULOV): 85.9%
cmin [3]: 13.1 ng/mL
Autosampler (24h, 4°C) Accuracy [%] ([4]; validation standard 2xLLOV): 104.2%
Autosampler (72h, 4°C) Accuracy [%] ([4]; validation standard 2xLLOV): 104.4%
Autosampler (24h, 4°C) Accuracy [%] ([4]; validation standard LLOV): 91.3%
Autosampler (72h, 4°C) Accuracy [%] ([4]; validation standard LLOV): 99.8%
Autosampler (24h, 4°C) Accuracy [%] ([4]; validation standard MOV): 102.7%
Autosampler (72h, 4°C) Accuracy [%] ([4]; validation standard MOV): 104.6%
Autosampler (24h, 4°C) Accuracy [%] ([4]; validation standard ULOV): 102.7%
Autosampler (72h, 4°C) Accuracy [%] ([4]; validation standard ULOV): 101.4%
Short-time stability (1h, 56°C) Accuracy [%] ([5]; validation standard 2xLLOV): 48.8%
Short-time stability (24h, 4°C, without daylight) Accuracy [%] ([5]; validation standard 2xLLOV): 103.5%
Short-time stability (24h, RT, with daylight) Accuracy [%] ([5]; validation standard 2xLLOV): 102.5%
Short-time stability (24h, RT, without daylight) Accuracy [%] ([5]; validation standard 2xLLOV): 105.4%
Short-time stability (1h, 56°C) Accuracy [%] ([5]; validation standard LLOV): 56.0%
Short-time stability (24h, 4°C, without daylight) Accuracy [%] ([5]; validation standard LLOV): 96.7%
Short-time stability (24h, RT, with daylight) Accuracy [%] ([5]; validation standard LLOV): 99.4%
Short-time stability (24h, RT, without daylight) Accuracy [%] ([5]; validation standard LLOV): 96.1%
Short-time stability (1h, 56°C) Accuracy [%] ([5]; validation standard MOV): 51.2%
Short-time stability (24h, 4°C, without daylight) Accuracy [%] ([5]; validation standard MOV): 100.1%
Short-time stability (24h, RT, with daylight) Accuracy [%] ([5]; validation standard MOV): 104.3%
Short-time stability (24h, RT, without daylight) Accuracy [%] ([5]; validation standard MOV): 103.0%
Short-time stability (1h, 56°C) Accuracy [%] ([5]; validation standard ULOV): 43.9%
Short-time stability (24h, 4°C, without daylight) Accuracy [%] ([5]; validation standard ULOV): 88.8%
Short-time stability (24h, RT, with daylight) Accuracy [%] ([5]; validation standard ULOV): 105.8%
Short-time stability (24h, RT, without daylight) Accuracy [%] ([5]; validation standard ULOV): 102.1%
